According to article PMC4985754, “Folding analysis of the most complex Stevedore’s protein knot” (Scientific Reports, 2016):

T1: DehI (Pseudomonas putida, UniProt Q8GJ84)
T1 construct: domains 1-130 and 166-296, linker 131-165
T1 sequence (Q8GJ84 1-296): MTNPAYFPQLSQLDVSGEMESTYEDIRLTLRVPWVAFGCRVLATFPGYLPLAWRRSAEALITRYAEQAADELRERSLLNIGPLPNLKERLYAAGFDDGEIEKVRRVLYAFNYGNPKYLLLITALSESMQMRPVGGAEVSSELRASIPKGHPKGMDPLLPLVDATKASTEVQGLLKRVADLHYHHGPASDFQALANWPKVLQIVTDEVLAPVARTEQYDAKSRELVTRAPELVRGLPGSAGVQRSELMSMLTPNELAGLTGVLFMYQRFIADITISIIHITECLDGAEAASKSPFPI

B1: DehI, α-haloacid dehalogenase from Pseudomonas putida strain PP3 (enzyme)
chain: MTNPAYFPQLSQLDVSGEMESTYEDIRLTLRVPWVAFGCRVLATFPGYLPLAWRRSAEALITRYAEQAADELRERSLLNIGPLPNLKERLYAAGFDDGEIEKVRRVLYAFNYGNPKYLLLITALSESMQMRPVGGAEVSSELRASIPKGHPKGMDPLLPLVDATKASTEVQGLLKRVADLHYHHGPASDFQALANWPKVLQIVTDEVLAPVARTEQYDAKSRELVTRAPELVRGLPGSAGVQRSELMSMLTPNELAGLTGVLFMYQRFIADITISIIHITECLDGAEAASKSPFPI
notes: DehI, α-haloacid dehalogenase, Pseudomonas putida strain PP3; No tag cleavage is described; The theoretical MW of the homodimer is printed as 69.9 kDa, which may include the tag (surmise); also called wt; source: E. coli BL21 (DE3), purified (HisTrap HP, Superdex 200 SEC)

Assays:
[1] = target: T1, DehI; assay: colorimetric phenol red dehalogenase assay, absorbance at […] nm; assay type: biochemical; conditions: 10 mM substrate, 10 uM enzyme, 50 mM HEPES pH 8.2, 20 mM Na2SO4, 1 mM EDTA, room temperature overnight
[2] = target: the molecule itself; assay: SEC-MALS; DehI in solution, mono-dispersed major elution peak; buffer A (20 mM potassium phosphate pH 8, 300 mM NaCl) unless stated otherwise; observed MW compared with the theoretical MW of the homodimer

| Molecule | colorimetric phenol red dehalogenase assay, absorbance at 559 nm [1] | stoichiometry N [2] |
| --- | --- | --- |
| CC(Cl)C(=O)O (centres unmarked) [2-chloropropionic acid] | 2-chloropropionic acid was used as the substrate of DehI | – |
| B1 | – | 2 |
